Assays:
[1] = molecular target: T1, Polyphosphate kinase 1 (PPK1) (Escherichia coli, UniProt P0A7B1); test: SPR; assay type: binding
T1 sequence (P0A7B1 2-688): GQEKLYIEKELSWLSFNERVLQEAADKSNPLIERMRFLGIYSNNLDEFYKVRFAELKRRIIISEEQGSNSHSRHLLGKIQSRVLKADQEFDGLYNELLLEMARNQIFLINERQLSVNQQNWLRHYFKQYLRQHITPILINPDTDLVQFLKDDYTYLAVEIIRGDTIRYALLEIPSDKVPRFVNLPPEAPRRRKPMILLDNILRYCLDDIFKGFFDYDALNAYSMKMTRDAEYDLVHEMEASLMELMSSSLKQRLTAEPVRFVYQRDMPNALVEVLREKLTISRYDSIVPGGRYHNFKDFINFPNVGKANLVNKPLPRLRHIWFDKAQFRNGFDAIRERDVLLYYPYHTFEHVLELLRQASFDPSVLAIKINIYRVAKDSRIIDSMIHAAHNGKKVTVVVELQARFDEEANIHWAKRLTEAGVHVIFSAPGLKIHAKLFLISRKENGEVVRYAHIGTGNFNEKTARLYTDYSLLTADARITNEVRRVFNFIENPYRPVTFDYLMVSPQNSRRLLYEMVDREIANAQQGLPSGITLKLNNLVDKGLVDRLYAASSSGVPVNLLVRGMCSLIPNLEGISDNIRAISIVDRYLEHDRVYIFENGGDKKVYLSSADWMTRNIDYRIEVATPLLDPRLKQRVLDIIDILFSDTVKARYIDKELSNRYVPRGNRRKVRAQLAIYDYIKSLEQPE

[2] = molecular target: T1, Polyphosphate kinase 1 (PPK1); test: SPR single-concentration response at […]; assay type: binding

| Kd [1] [µM] | SPR single-concentration response at 100 μM (positive control) [2] | SMILES |
| --- | --- | --- |
| 84.6 |  | Cc1ccc(C(=O)Nc2ccc(Cl)cc2)cc1C(F)(F)F [compound 17, 17] |
|  | 3.06 100RU/Da | COc1cc([C@@H]2c3cc4c(cc3[C@@H](O[C@@H]3O[C@@H]5CO[C@@H](C)O[C@H]5[C@H](O)[C@H]3O)[C@H]3COC(=O)[C@H]23)OCO4)cc(OC)c1O [Etoposide] |
| 85.8 |  | O=[N+]([O-])c1ccc2nc(-c3ccc(Cl)cc3)[nH]c2c1 [compound 8, 8] |
